Laboratory results reported in patent publication US7855232B2, “Organoselenium compound for cancer chemoprevention” (LKT Laboratories, Inc., priority 2001, dated 2010).
Marks after values point to notes of the source that are not given here.

Tests used:
Format in all cases: in vivo, Female A/J mice
[1] = test system: Glutathione S-Transferase; test: Glutathione S-transferase (GST) activity in tissue cytosol of treated mice, CDNB substrate; settings: for Ratio Test/con (GST): gavage; for GST act.: gavage in corn oil
Description: The activity of cytosolic was assayed according to the method of Habig et al. using 1-chloro-2,4-dinitrobenzene (CDNB) as the substrate. Habig et al, J. Biol. Chem. 249:7130-7139 (1974). The complete solution contains, in a total volume of 2.0 mL, 0.1 M phosphate buffer, pH 6.5, 5 mM glutathione, 1 mM CDNB, and 20 μL of the cytosol. The reaction was monitored at 340 nm in a Beckman Model DU65 UV-VIS spectrophotometer. Assays were performed at 30° C. Complete assay mixture without the cytosolic enzyme was used as the reference blank. Data as analyzed by the Student's “t” test and P values were obtained in comparison to the control.

[2] = test system: GSH; test: Glutathione (GSH) concentration in tissues of treated mice, HPLC; settings: liver; for Ratio Test/con (GSH): gavage; for GSH conc.: gavage in corn oil
Description: GSH was quantitated by modification of the procedure Siller-Cepeda et al. Plant Cell Physiol. 32:1179-1185 (1991). Aliquots of tissue homogenates were mixed with equal volumes of 20% PCA containing 2 mM BPDS. Vortex, centrifuge at 7800×g for 15 minutes at 4° C. and 250 μl supernatant transferred into a microfuge tube containing 25 μl of γ-glu-glu as internal standard. The samples were carboxymethylated with 25 μl of 100 mM iodoacetic acid dissolved in 0.2 mM m-cresol purple sodium salt solution. The pH of the solution was adjusted to 9-10 by adding 350 μl of KOH (2M)-KHCO3 (2.4 M) mixture and incubated in the dark for 15 minutes. After carboxymethylation, the samples were derivatized with 500 μl of 1% dinitrofluorobenzene (DNFB) and kept in the dark at 4° C. overnight. The samples were centrifuged at 13,000×g for 15 minutes, filtered through 0.2 μm filter, and were analyzed with a SHIMADZU two-pump gradient HPLC system. Samples were injected by a SHIMADZU SIL-10AV Autoinjector onto a Varian 3-aminopropyl MICROSORB-MV column (4.6×250 mm) operated at ambient temperature with a flow rate of 1 ml/min. Absorbance of the dinitrophenyl derivatives was monitored at 365 nm. The amount of GSH was calculated from a standard curve using γ-glu-glu as internal standard.

[3] = test system: UDP-Glucuronosyltransferase (UDP-GT); test: UDP-glucuronosyltransferase (UDP-GT) activity in liver microsomes of treated mice, o-aminophenol substrate; settings: for Ratio Test/con (UDP-GT): gavage; for UDP-GT activity (column head prints GSH conc.): gavage in corn oil
Description: Microsomal samples were assayed for enzymatic conjugation by modifying the procedure of Zakim et al., Methods of Biochemical Analysis, ed. David Glick, 21:1-37, (1973). using o-aminophenol as the substrate. The complete assay solution contains, in a total volume of 500 μl, 0.25 M phosphate buffer (pH 7.6), 0.002 M o-aminophenol, 0.05 M UDPGA, 0.125 M magnesium chloride and 100 μl microsomes. The mixture was incubated for 30 minutes. Reactions were stopped by the addition of 500 μl of TCA-sodium phosphate reagent. The precipitated protein was removed, 100 μl of 0.05% sodium nitrite was added to 950 μl of the supernatent solution and allowed to stand for 5 minutes. 100 μl of 0.5% ammonium sulfamate was added, after 5 minutes. 100 μl of 0.12% N-(-1-naphthyl)ethylenediamine dihydrochloride was added and incubated for 2 hours in the dark; and the difference in the optical density between the blanks and the samples were recorded at 555 nm in a Beckman model DU65 UV-VIS spectrophotometer. The UDP-GT activity was calculated using the extinction coefficient 29 mM-1 cm-1 for the coupled product.

[4] = colon, dose 0.02 mmol/Kg body weight
[5] = colon, dose 0.04 mmol/Kg body weight
[6] = forestomach, dose 0.02 mmol/Kg body weight
[7] = forestomach, dose 0.04 mmol/Kg body weight
[8] = liver, dose 0.02 mmol/Kg body weight
[9] = liver, dose 0.04 mmol/Kg body weight
[10] = lung, dose 0.02 mmol/Kg body weight
[11] = lung, dose 0.04 mmol/Kg body weight
[12] = small intestinal mucosa, dose 0.02 mmol/Kg body weight
[13] = small intestinal mucosa, dose 0.04 mmol/Kg body weight

SMILES: N#C[Se]Cc1ccc(C[Se]C#N)s1 [(2) TDMSC, thienyl-2,5-di-methylene selenocyanate]
- Ratio Test/con (GST) [1, 4]: 1.00
- GST act. [1, 4]: 0.40 ± 0.04 μmol/min mg protein
- Ratio Test/con (GST) [1, 5]: 1.00
- GST act. [1, 5]: 0.40 ± 0.01 μmol/min mg protein
- Ratio Test/con (GST) [1, 6]: 1.15
- GST act. [1, 6]: 0.90 ± 0.12 μmol/min mg protein
- Ratio Test/con (GST) [1, 7]: 1.15
- GST act. [1, 7]: 0.90 ± 0.11 ^g μmol/min mg protein
- Ratio Test/con (GST) [1, 8]: 1.27
- GST act. [1, 8]: 1.43 ± 0.2 ^g μmol/min mg protein
- Ratio Test/con (GST) [1, 9]: 1.12
- GST act. [1, 9]: 1.26 ± 0.21 μmol/min mg protein
- Ratio Test/con (GST) [1, 10]: 1.04
- GST act. [1, 10]: 0.49 ± 0.07 μmol/min mg protein
- Ratio Test/con (GST) [1, 11]: 1.15
- GST act. [1, 11]: 0.54 ± 0.09 μmol/min mg protein
- Ratio Test/con (GST) [1, 12]: 1.03
- GST act. [1, 12]: 0.35 ± 0.01 μmol/min mg protein
- Ratio Test/con (GST) [1, 13]: 1.18
- GST act. [1, 13]: 0.40 ± 0.16 μmol/min mg protein
- Ratio Test/con (GSH) ([2]; dose 0.02 mmol/Kg body weight): 1.28
- GSH conc. ([2]; dose 0.02 mmol/Kg body weight): 4.91 ± 1.16 μmol/gm tissue weight
- Ratio Test/con (GSH) ([2]; dose 0.04 mmol/Kg body weight): 1.20
- GSH conc. ([2]; dose 0.04 mmol/Kg body weight): 4.60 ± 2.13 μmol/gm tissue weight
- Ratio Test/con (UDP-GT) ([3]; dose 0.02 mmol/Kg body weight): 1.58
- UDP-GT activity (column head prints GSH conc.) ([3]; dose 0.02 mmol/Kg body weight): 7.00 ± 1.07 ^c nmol/min/mg protein
- Ratio Test/con (UDP-GT) ([3]; dose 0.04 mmol/Kg body weight): 2.81
- UDP-GT activity (column head prints GSH conc.) ([3]; dose 0.04 mmol/Kg body weight): 12.44 ± 2.31 ^c nmol/min/mg protein
- Ratio Test/con (UDP-GT) ([3]; dose 0.04 mmol/Kg body weight, listed as TDMSC 2): 3.0
